The text below walks through data of patent US5932619A, “Method for preventing sexually transmitted diseases” (Rush-Presbyterian, St. Luke's Medical Center, priority 1997, dated 1999).

≈ marks a conversion by molar mass, not a printed value. Entries after “also recorded” stand apart in the source; their conditions may differ.

As a reminder, the IC50 is the midpoint of a concentration-inhibition curve. As usually defined, the solubility is how much of the substance goes into solution per volume. Low values mean a poorly soluble substance, high ones a readily soluble substance.

The subject of data set [1] is sheep testicular hyaluronidase. Briefly: Hyaluronidase inhibition (hyaluronic acid hydrolysis). The data set is classed as biochemical. The note with it: for IC50: pH 5.5, 10 minutes preincubation. Here is the method: Hyaluronidase activity was quantitatively determined by measuring the extent of hyaluronic acid hydrolysis (i.e., the concentration of N-acetylglucosamine-reactive material formed from enzyme activity). Reaction mixtures (0.25 ml) containing the following were prepared: test compound (variable concentration); 0.1 M sodium acetate; 0.15 M sodium chloride; pH adjusted to 5.5; 7.2 units sheep testicular hyaluronidase (Sigma, Type III; H-2251) contained in an acetate buffer; 0.3 mg/ml hyaluronic acid (Sigma, from bovine vitreous humor; H-7630). The enzyme was preincubated with the test agent (1 mg/ml for screening purposes) for 10 minutes before starting the reaction by the addition of hyaluronic acid. The enzyme reaction was determined using the method of Aronson and Davidson (J. Biol. Chem. 241 437-440 (1967)). The reaction mixture was incubated for 30 minutes at room temperature. The reaction product was determined colorimetrically with p-dimethylaminobenzaldehyde (Reissig et al., J. Biol. Chem. 217 959-966 (1965)) by measuring the absorbance at 545 nm.
The reversibility of the hyaluronidase was determined by evaluating enzyme activity at different levels of enzyme (Ackermann and Potter, Proc. Soc. Exp. Biol. Med. 72 1-9 (1949)).

The test system of data set [2] is rabbit spermatozoa. Briefly: Motility of rabbit sperm in the contraceptive test. The data set is classed as cell-based. The following applies: rabbit sperm in TALP buffer. Here is the method: Rabbit spermatozoa were collected and then diluted in a TALP buffer containing glucose, lactate, and pyruvate. Test compounds were dissolved in the same buffer system. […] Female rabbits were then artificially inseminated with about 0.5 ml of buffer containing about 22.5-30×10^6 sperm. For controls (i.e., sperm and buffer containing no added contraceptive agents), fertilization averaged about 96 percent.

Another data set has as its system Neisseria gonorrhea. Briefly: Bacterial multiplication assay (gonococci). The data set is classed as cell-based. Here is the method: This example illustrates the inhibitory effect for several of the inhibitory agents of this invention on Neisseria gonorrhea using a bacterial multiplication assay. Neisseria gonorrhea isolated from local uncomplicated cases of gonorrhea was verified by Gram stain, oxidase reactivity, and sugar fermentation. The titer of log-phase cultures was adjusted by dilution in GC broth to about 10^8 colony forming units per milliliter. Samples were diluted with broth containing no additives (control) and serial dilutions of the test agents (1000 μg/ml to 0.1 μg/ml). The resulting cultures were incubated at 37° C. for 4 hours. Five serial dilutions were made with GC broth; each dilution was inoculated onto GC agar plates. The inoculated plates were incubated overnight at 37° C. and the resultant gonococcal colonies were counted using bright-field microscopy.

A further data set can be described thus: physchem. The data set is classed as physicochemical.
The subject of a further data set is spermatozoa. The data set is classed as cell-based. The note with it: concentrations as high as 20 mg/ml.
In data set [3] the test system is Chlamydia trachomatis (serotype E/UW-5/CS). Briefly: Chlamydia multiplication assay in HeLa monolayers. The data set is classed as cell-based. Here is the method:
This example illustrates the inhibitory effect of several of the inhibitory agents of this invention on Chlamydia trachomatis using a multiplication assay. Immediately before the assay, cryopreserved Chlamydia trachomatis (serotype E/UW-5/CS) samples were quickly thawed at 37° C. and suspended in Hank's balanced salt solution (HBSS) by mild sonication. Serial 1:10 dilutions (10^-1 to 10^-7) of the bacterial suspension were made. HeLa monolayers on coverslips were inoculated with 100 μl of the chlamydia samples in the presence (0.1, 1.0, 10, 100, and 1000 μg/ml) or absence of the test agents. After one hour, the monolayers were washed with HBSS to remove free chlamydia and test agent (if present) and then incubated for 48 hours in HBSS at 37° C.
After the medium was removed, the HeLa monolayer samples were fixed in methanol and washed. The cells were then treated with Kallsted Chlamydia Culture Confirmation fluorescein-conjugated Monoclonal Antibody for 30 minutes at room temperature in a dark, humidified chamber. The cells were then washed with water and covered with coverslip using a mounting medium. Inclusions due to chlamydia infection were visualized with a fluorescent microscope as green fluorescence.

For the next data set, the system named is Lactobacillus gasseri. Briefly: Growth of normal vaginal flora bacterium in culture. The data set is classed as cell-based. Here is the method:
This example illustrates the effect of the inhibitory agents of this invention on the normal vaginal flora. Lactobacillus gasseri, which is found in normal vaginal flora, was obtained from the American Type Culture Collection (Rockville, Md.) and cultured under anaerobic conditions at 37° C. in the presence of the desired test agents. Control samples without added test agents were also run. Samples were collected at twenty minute intervals starting at 120 minutes after the start of incubation through 240 minutes. The absorbance at 550 nm was used to estimate the cell density and inhibitory effects. Nonoxynol-9 was also evaluated for comparison purposes.

Data set [4] relates to rabbit spermatozoa. As to the kind of experiment: Contraceptive effect: rabbit sperm treated before artificial insemination. The data set is classed as in vivo. How it is done:
Rabbit spermatozoa were collected and then diluted in a TALP buffer containing glucose, lactate, and pyruvate. Test compounds were dissolved in the same buffer system.

The test system of a further data set is sperm. Briefly: Sperm acrosomal loss. The data set is classed as cell-based. The note with it: 0.5 μg/ml, read-out: maximal acrosomal loss induced.
A further data set concerns HIV-1. As to the kind of experiment: Viral binding inhibition assay (syncytia formation in MT2 cells). The data set is classed as cell-based, HIV-1 (strain III).
The subject of data set [5] is human immunodeficiency virus (HIV-1, RF strain). As to the kind of experiment: microbe, parasite or virus in culture. The following applies: Human immunodeficiency virus 1, read-out: kill of the virus in culture.
Description: For the cell-free virus inactivation assay, HIV is added to the test agent in water and incubated for about 2 minutes. After removal of the test agent by dilution, the treated virus is added to target cells and incubated for 7 days.
Another data set deals with HSV (type 2, strain 333). Briefly: Anti-HSV plaque assay on Vero cells. The data set is classed as cell-based, herpes simplex virus. Here is the method: Viral infectivity was measured by co-culturing herpes simplex virus (HSV) with Vero (African green monkey kidney) cells in phosphate-buffered solutions.
The test agent was serially diluted (0.1 μg/ml to 500 μg/ml) in phosphate-buffered saline (PBS). Each dilution was mixed with HSV (type 2, strain 333). Samples (1 ml) of each mixture were plated in triplicate on washed and drained monolayers of Vero (African green monkey kidney) cells on the bottom of […] flasks. The initial titer in each culture was determined as plaque forming units per milliliter using control cultures with no added test agents. Flasks were incubated at 37° C. for 2 hours and the medium (containing virus and test agent) removed. After washing the cells with PBS, the cells were cultured in supplemented medium 199 (Sigma Chem., cat. no. M9163) for 3 days. After culturing, the cells were stained with Giemsa and the number of viral plaques was determined by phase contrast microscopy. After correcting for dilutions, the viral titer was estimated from the number of plaques. Data were also expressed as the percentage of plaques relative to the control samples (not exposed to test agents). […] The concentration of test agent that was required to reduce the viral titer by 50 percent (IC50) was estimated with curve-fitting software from plots of plaque-forming units per milliliter against the concentration of test agent.

The subject of data set [6] is vaginal/cervical epithelial and other cells. The note with it: concentrations as low as; cited from earlier work.
In another data set the test system is MT2 cells. Briefly: Cytotoxicity towards host cells of the viral binding assay. The data set is classed as cell-based. The note with it: at the levels of the HIV viral binding assay. How it is done: Serial dilutions of the test compounds (ranging from 0.1 μg/ml to 1.0 mg/ml) were added to HIV-1 virus such that 50 μl inoculum produced between 70 to 100 syncytia per well in untreated wells containing MT2 cells. The HIV-1 used was strain III, propagated in, and harvested from, a T4-lymphobastoid cell line. Each serial dilution of the test compound with virus was placed in each of three wells containing MT2 cells. The test compound alone was added to a fourth well containing MT2 cells to test for possible cytotoxicity. Triplicate virus control samples (no added test compounds but containing the equivalent amounts of the RPMI medium) were also included.

Consider `O=C(O)C(OC(C(=O)O)c1ccccc1)c1ccccc1` (stereo not drawn) [H2 SO4 -modified Mandelic Acid, 2,2'-diphenyl-2,2'-oxy-di-acetic acid], for which the “reversibility of hyaluronidase inhibition” value in data set [1] (enzyme activity at different levels of enzyme) is recorded as “irreversible”. Also, the concentration for half-maximal inhibition (IC50) is 8.4 µg/mL (≈ 0.0293 mM) in data set [1]; 15 to 17 µg/mL (≈ 0.0524 to 0.0594 mM) with Neisseria gonorrhea (Neisseria, gonococcal multiplication, 4 hours); 0.05 µg/mL (≈ 0.000175 mM) in data set [3]; 0.3 µg/mL (≈ 0.00105 mM) in the data set with HIV-1 (Human immunodeficiency virus 1, HIV-1, MT2 cells). Also, the sperm motility entry was “did not effect sperm motility” in the data set with rabbit spermatozoa [2] and “did not result in the loss of sperm motility” in the data set on spermatozoa. The “inhibition of gonococcal multiplication/growth” value with Neisseria gonorrhea (100 μg/ml) is given as “completely inhibited; also recorded: complete inhibition”. The “water solubility (in words)” value in the data set “physchem” was “water soluble”. Also, in “physchem” (water), the solubility is about 350 mg/mL (≈ 1220 mM). Also, the “effect on normal vaginal flora” value in the data set with Lactobacillus gasseri was “no apparent adverse effects”. Further, the “effect on the growth of Lactobacillus” value in the data set with Lactobacillus gasseri (5 mg/ml) was “did not have any effect; also recorded: not affected”. Besides, in the data set on rabbit spermatozoa [4] (5 mg/ml added to sperm/buffer, about 15 minutes at 37° C., controls about 96 percent), the “fertilization (average)” value was “about 10%”. The conception result in the data set on rabbit spermatozoa [4] (rabbit sperm treated with about 5 mg/ml prior to artificial insemination) is recorded as “nearly complete inhibition of conception”. Further, the Emax at 0.5 µg/mL with sperm is about 70%. The IC100 in the data set with HIV-1 (Human immunodeficiency virus 1, read-out: Complete Inhibition (lowest concentration at which complete inhibition occurs), HIV-1, MT2 cells) was 5 µg/mL. Also, the killing at 10 µg/mL in data set [5] is about 99%. In the data set on HSV (type 2, strain 333) (10 μg/ml), the “HSV inhibition in culture” value was “completely inhibited”. Further, in the data set on HSV (type 2, strain 333) (Vero, read-out: Inhibition 3-Log (99.9 percent), concentration), the IC99.9 was 6.8 µg/mL. Besides, in the data set with HSV (type 2, strain 333) (Vero, read-out: Inhibition 4-Log (99.99 percent), concentration), the IC99.99 was determined as 10 µg/mL.
Consider Nonoxynol-9 [reference compound], for which, in data set [6], the “concentration that can injure cells” value was “about 0.0005%”. In [1], the IC50 result is “inactive”. The “cytotoxicity towards the MT2 cells” value in the data set with MT2 cells is “did show cytotoxic effects”. For the same molecule, the “inhibition of Lactobacillus gasseri growth” value in the data set with Lactobacillus gasseri (0.5 mg/ml) was “about 60%”.
